Data from patent US11964984B2, “TXNIP-TRX complex inhibitors and methods of using the same” (CITY OF HOPE, priority 2020, dated 2024).

Assays:
TNF-α mRNA = TNF-α mRNA expression in murine MIN6 pancreatic beta cells (RT-PCR); assay type: cell-based, mouse; settings: 25 mM glucose, 72 hours
Experimental: FIGS. 4A-4B. […] MIN6 cells were cultured under 25 mM glucose with C30 and C38 at the indicated concentrations for 72 hours. Total RNA was prepared. RT-PCR was performed and data shown are the mean±SEM from triplicates. Statistical analysis was performed for each column vs. HG DMSO using one-way ANOVA: *p<0.0001. […] MIN6 cells were cultured under 25 mM glucose and treated with C30 and C38 at the indicated concentrations for 72 hours. Total RNA was prepared. RT-PCR was performed and data shown are the mean±SEM from triplicates. Statistical analysis was performed for each column vs. HG DMSO using one-way ANOVA: *p<0.0001.
To ascertain the relevance to pancreatic beta cells, we tested the effects of the lead compounds on key target gene mRNA levels in murine MIN6 pancreatic beta cells.
RNA extraction and quantitative RT-PCR. RNA was extracted using the Direct-zol™ RNA MiniPrep Plus (Zymo Research). Reverse transcription of RNA samples into cDNA was performed using the GeneAmp RNA PCR Kit (Applied Biosystems), dNTP (from Roche Applied Science), Rnase inhibitor, MULV Reverse Transcriptase and Random hexamers reagent (all from Invitrogen). Diluted cDNA was quantified using real-time PCR performed with Power SYBR Green qPCR MasterMix (Applied Biosystem) and 7500 real-time PCR system (Applied Biosystems). The HPRT1 gene was used as an internal control.

TXNIP mRNA = assay: TXNIP expression in murine kidneys after oral dosing (RT-PCR); assay type: in vivo, C57BL/6 mice; settings: 90 mg/kg oral gavage daily for five days, 96 hr after last dose
Experimental: FIG. 17. Compounds C30 and C38 reduce TXNIP expression in murine kidneys. Twelve male C57BL/6 mice were divided into three groups (vehicle, C30 and C38, 4/group). They received 90 mg/kg dose of compounds daily for five consecutive days. Compounds were given through oral gavage and mice were humanely euthanized 96 hr after the last drug administration. Kidneys were collected for total RNA preparation. RT-PCR was performed in triplicate and data shown are the mean±SEM. Statistical analysis was performed using one-way ANOVA: *p<0.05.
(§1) The effects of compounds C30 and C38 at single high dose of 90 mg/kg. Twelve male mice were divided into three groups: 1) Control group (4 mice), 2) compound C30 (4 mice) and 3) compound C38 (4 mice). By oral gavage, animals were given 90 mg/kg of agent daily for 5 consecutive days (vehicle: 30% Solutol in saline). Mice were weighed every day during the treatment period. They were humanely euthanized 96 hours after the last dose. Tissues including the pancreas, liver and kidneys were collected (snap frozen in liquid nitrogen) for RNA extraction. […] Those given compound C30 lost ˜5% of body weight (FIG. 15).
Expression of TXNIP in vivo in treated mice.

human islets = assay: BCL2/BAX ratio (apoptosis marker) in human islets under high glucose plus cytokines; assay type: cell-based; settings: 25 mM glucose + TNFα, IL1β, IFNγ, 40 hours
Experimental: FIGS. 18A-18B. C30 and C38 compounds protect cells from apoptosis in human islets. 100 IEQ human islets (Hu 1178) were cultured in PIM(R)© containing NG (5.8 mM glucose) or HG (25 mM glucose), and TNFα (20 ng/ml), IL1β (20 ng/ml), IFNγ (200 ng/ml) for 40 hours with or without lead compounds. Total RNA was prepared and RT PCR performed. FIG. 18A: BCL2/BAX ratios are the mean±SEM from triplicates. Statistical analysis was performed for each column vs. HG, 3 cytokines using one-way ANOVA: *p<0.002. FIG. 18B: TXNIP relative mRNA levels. Data shown are the mean±SEM from triplicates. Statistical analysis was performed for each column vs. HG, 3 cytokines using one-way ANOVA: **p<0.0001.
In T1D, β-cell death involves necrosis and apoptosis. BCL2 limits BAX/BAK oligomerization, to impede the release of several apoptogenic molecules from mitochondria. Also, BCL2 binds to and inactivates BAX and other pro-apoptotic proteins, thereby inhibiting apoptosis. BAX and BAK disrupt the integrity of the mitochondrial outer membrane to promote apoptotic cell death. As such, the BCL2/BAX ratio is used as a marker of cell susceptibility to apoptosis. High levels of this ratio can serve as an indicator of the resistance of human cells to apoptosis. […]

[1] = Body weight after maximum dose regime (90 mg/kg) in mice; assay type: in vivo; settings: 90 mg/kg oral gavage daily for 5 days, euthanasia 96 hr after last dose
Experimental: FIG. 15. Murine weight change after maximum dose regime (90 mg/kg).
as §1

| Structure (SMILES) | TNF-α mRNA expression (TNF-α mRNA) | RNA expression level of TXNIP in kidneys (TXNIP mRNA) | BCL2/BAX ratio (human islets) | loss of body weight [1] [%] | weight loss [1] |
| --- | --- | --- | --- | --- | --- |
| COc1cc(N2CC[C@@H](c3ccc4ccccc4c3)[C@H](O)C2)nc(N)n1 [Compound C30] | tended to increase TNF-α mRNA expression | reduced | significantly increased BCL2/BAX ratios | ~5 |  |
| c1ccc(CCNc2ncnc3c2oc2ccccc23)cc1 [Compound C38] | tended to increase TNF-α mRNA expression | reduced | significantly increased BCL2/BAX ratios |  | no significant weight loss |
